Assay results from PubChem BioAssay (NCI).
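Five compound concentrations were applied to cells in 96-well plates for 48 hours; endpoints were derived by simple linear interpolation of the resulting dose-response curve. TGI marks complete inhibition of growth.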

Tests used:
Experiment in all cases: growth of human tumour cells (NCI), 48 h
[1] = tested on: 786-0 renal
[2] = tested on: COLO 205 colon
[3] = tested on: EKVX NSCLC
[4] = tested on: HCT-116 colon
[5] = tested on: HL-60(TB) leukemia
[6] = tested on: NCI-H226 lung
[7] = tested on: NCI/ADR-RES ovarian
[8] = tested on: SF-268 CNS
[9] = tested on: SK-MEL-28 melanoma
[10] = tested on: UO-31 renal

CCOC(=O)CCN1C(=O)c2c(NC(=O)C(=O)O)cccc2S1(=O)=O
TGI [1]: > 100 µM
TGI [2]: > 100 µM
TGI [3]: > 100 µM
TGI [4]: > 100 µM
TGI [5]: > 100 µM
TGI [6]: > 100 µM
TGI [7]: > 100 µM
TGI [8]: > 100 µM
TGI [9]: > 100 µM
TGI [10]: > 100 µM

COc1ccc2c(-c3csc(-c4c[nH]c5ccccc45)n3)c[nH]c2c1
TGI [1]: 18.2 µM
TGI [2]: > 57.7 µM
TGI [3]: 13.3 µM
TGI [4]: 19 µM
TGI [5]: > 100 µM
TGI [6]: 45.4 µM
TGI [7]: > 81.6 µM
TGI [8]: 26 µM
TGI [9]: > 81.6 µM
TGI [10]: 30.6 µM

O=C1CCc2c(sc3ncnc(Nc4cccc(Br)c4)c23)C1
TGI [1]: 19 µM
TGI [2]: 20.8 µM
TGI [3]: 12.4 µM
TGI [4]: 11.7 µM
TGI [5]: 7.56 µM
TGI [6]: 14.8 µM
TGI [7]: > 26.7 µM
TGI [8]: 15.2 µM
TGI [9]: 52.6 µM
TGI [10]: 5.23 µM

Nc1nc(Cl)cc(NCC2CC(O)(CO)C2)n1 (stereo not given)
TGI [1]: > 100 µM
TGI [2]: > 100 µM
TGI [3]: > 100 µM
TGI [4]: > 100 µM
TGI [5]: > 100 µM
TGI [6]: > 100 µM
TGI [7]: > 100 µM
TGI [8]: > 100 µM
TGI [9]: > 100 µM
TGI [10]: > 100 µM

O=C(CSCC(=O)N/N=C\c1cccc(Br)c1)N/N=C\c1cccc(Br)c1
TGI [1]: 35.5 µM
TGI [2]: > 100 µM
TGI [3]: 63.7 µM
TGI [4]: 27.9 µM
TGI [5]: > 100 µM
TGI [6]: 36.5 µM
TGI [7]: 34.1 µM
TGI [8]: 37.9 µM
TGI [9]: 41.7 µM
TGI [10]: 33.1 µM

N#Cc1c(NC(=S)Nc2ccccc2)sc2c1CCCC2
TGI [1]: > 100 µM
TGI [2]: > 100 µM
TGI [3]: > 100 µM
TGI [4]: > 100 µM
TGI [5]: > 100 µM
TGI [6]: > 100 µM
TGI [7]: > 100 µM
TGI [8]: > 100 µM
TGI [9]: > 100 µM
TGI [10]: > 100 µM

c1ccc2c(c1)[C@@H]1O[C@@H]1[C@@]13O[C@@]21[C@H]1O[C@H]1c1ccccc13
TGI [1]: 30.1 µM
TGI [2]: 32.8 µM
TGI [3]: 31.9 µM
TGI [4]: 25.2 µM
TGI [5]: 41 µM
TGI [6]: 31.3 µM
TGI [7]: 39.6 µM
TGI [8]: 28.3 µM
TGI [9]: 41.2 µM
TGI [10]: 51.1 µM

CC(=O)c1c2c(cc3c1CCC3)CCC2
TGI [1]: > 100 µM
TGI [2]: > 100 µM
TGI [3]: > 100 µM
TGI [4]: > 100 µM
TGI [5]: > 100 µM
TGI [6]: > 100 µM
TGI [7]: > 100 µM
TGI [8]: > 100 µM
TGI [9]: > 100 µM
TGI [10]: > 100 µM

S=C1NNC(=S)NN1
TGI [1]: > 1 µM
TGI [2]: > 1 µM
TGI [3]: > 1 µM
TGI [4]: > 1 µM
TGI [5]: > 1 µM
TGI [6]: > 1 µM
TGI [7]: > 1 µM
TGI [8]: > 1 µM
TGI [9]: > 1 µM
TGI [10]: > 1 µM

CN1C(=O)[C@](C)(Cc2ccc(F)cc2)N(C(=O)OC(C)(C)C)[C@@H]1C(C)(C)C
TGI [1]: 68.4 µM
TGI [2]: 39.7 µM
TGI [3]: > 100 µM
TGI [4]: > 100 µM
TGI [5]: 26.2 µM
TGI [6]: 67.3 µM
TGI [7]: 44.8 µM
TGI [8]: > 100 µM
TGI [9]: > 100 µM
TGI [10]: > 100 µM

O=C(O)CCC(NC(=O)/C(=C/c1ccccc1)NC(=O)c1ccccc1)C(=O)O (stereo not given)
TGI [1]: > 100 µM
TGI [2]: > 100 µM
TGI [3]: > 100 µM
TGI [4]: > 100 µM
TGI [5]: > 100 µM
TGI [6]: > 100 µM
TGI [7]: > 100 µM
TGI [8]: > 100 µM
TGI [9]: > 100 µM
TGI [10]: > 100 µM

Cc1cccc2c1C(=O)/C(=C/c1ccccc1C(=O)O)C2
TGI [1]: > 100 µM
TGI [2]: > 100 µM
TGI [3]: > 100 µM
TGI [4]: > 100 µM
TGI [5]: > 100 µM
TGI [6]: > 100 µM
TGI [7]: > 100 µM
TGI [8]: > 100 µM
TGI [9]: > 100 µM
TGI [10]: > 100 µM

[O-][n+]1cc(SCc2ccccc2)ncc1SCc1ccccc1
TGI [1]: > 10 µM
TGI [2]: > 10 µM
TGI [3]: > 10 µM
TGI [4]: > 10 µM
TGI [5]: > 10 µM
TGI [6]: > 10 µM
TGI [7]: > 10 µM
TGI [8]: > 10 µM
TGI [9]: > 10 µM
TGI [10]: > 10 µM

C=C1CC2C[C@H](OS(=O)(=O)c3ccc(C)cc3)C(C1)N2C (stereo not given in full)
TGI [1]: > 100 µM
TGI [2]: > 100 µM
TGI [3]: > 100 µM
TGI [4]: > 100 µM
TGI [5]: > 100 µM
TGI [6]: > 100 µM
TGI [7]: > 100 µM
TGI [8]: > 100 µM
TGI [9]: > 100 µM
TGI [10]: > 100 µM

CC1=NNC(N)=N/C1=C\C(Sc1ccc(Cl)cc1)c1ccc(Cl)cc1Cl (stereo not given)
TGI [1]: 75.9 µM
TGI [2]: 50.4 µM
TGI [3]: 32.7 µM
TGI [4]: > 65 µM
TGI [5]: 22.2 µM
TGI [6]: 36.2 µM
TGI [7]: 39 µM
TGI [8]: 33.2 µM
TGI [9]: 55.7 µM
TGI [10]: 27 µM

CO/C=C(/C(=O)OC)c1ccccc1[C@H]1C[C@@H]1c1ccccc1
TGI [1]: > 100 µM
TGI [2]: 27.6 µM
TGI [3]: 54.6 µM
TGI [4]: 62.5 µM
TGI [5]: 63.3 µM
TGI [6]: 74.4 µM
TGI [7]: 68.2 µM
TGI [8]: 82.5 µM
TGI [9]: 64.2 µM
TGI [10]: > 100 µM

Cc1nc2cccc(F)c2c(=O)n1-c1nnc(C2CC2)s1
TGI [1]: > 10 µM
TGI [2]: > 10 µM
TGI [3]: > 10 µM
TGI [4]: > 10 µM
TGI [5]: > 10 µM
TGI [6]: > 10 µM
TGI [7]: > 10 µM
TGI [8]: > 10 µM
TGI [9]: > 10 µM
TGI [10]: > 10 µM

CC(=O)OCC12C(OC(C)=O)C[C@@H](C)C3(CC(c4ccoc4)OC3=O)C1CCC(OC(C)=O)C21CO1 (stereo not given in full)
TGI [1]: > 100 µM
TGI [2]: > 100 µM
TGI [3]: > 100 µM
TGI [4]: > 100 µM
TGI [5]: > 100 µM
TGI [6]: > 100 µM
TGI [7]: > 100 µM
TGI [8]: > 100 µM
TGI [9]: > 100 µM
TGI [10]: > 100 µM

N#Cc1nc(-c2ccccn2)c(-c2ccccn2)nc1C#N
TGI [1]: 6.28 µM
TGI [2]: 10.6 µM
TGI [3]: 15.7 µM
TGI [4]: 3.27 µM
TGI [5]: > 29.2 µM
TGI [6]: 5.51 µM
TGI [7]: 8.5 µM
TGI [8]: 7.12 µM
TGI [9]: 45.6 µM
TGI [10]: 5.64 µM

CCOC(=O)c1sc2[n+](c1C)C(=O)/C(=C/c1ccccc1Cl)S2
TGI [1]: 26.1 µM
TGI [2]: 9.85 µM
TGI [3]: > 100 µM
TGI [4]: > 48 µM
TGI [5]: > 62.9 µM
TGI [6]: 23.1 µM
TGI [7]: 16.1 µM
TGI [8]: > 53.5 µM
TGI [9]: 47.3 µM
TGI [10]: 25 µM

O=C(N(C1=CCCC1)N(c1ccccc1)c1ccccc1)C(F)(F)F
TGI [1]: 96.5 µM
TGI [2]: 40.6 µM
TGI [3]: 39.1 µM
TGI [4]: 63.5 µM
TGI [5]: 46.8 µM
TGI [6]: 42.3 µM
TGI [7]: 87.9 µM
TGI [8]: 48.7 µM
TGI [9]: > 100 µM
TGI [10]: 75.6 µM
